Drawing on publication PMC6918025, “Genomewide and Enzymatic Analysis Reveals Efficient D-Galacturonic Acid Metabolism in the Basidiomycete Yeast Rhodosporidium toruloides” (mSystems, 2019), this text covers Km for three compounds.

Type in all cases: biochemical, Rhodotorula toruloides
Assay [1] has as its system T1, RTO4_9774 (L-glyceraldehyde reductase).
T1 construct: gene GaaD
Put plainly: NADPH loss at […] nm. Particulars: 0.3 mM NADPH, pH 7, 30°C.

Assay [2] concerns RTO4_11882 (D-galUA reductase, GAR1 homolog). Put plainly: NADPH loss at […] nm. The note with it: 0.3 mM NADPH, pH 7, 30°C.
Assay [3] relates to T2, RTO4_12062 (L-galactonate dehydratase).
T2 construct: gene GaaB; full-length, N-terminal HIS6-TEV tag removed by TEV protease, expressed in E. coli Rosetta, IMAC
Put plainly: semicarbazide assay at […] nm. Particulars: 5 mM MgCl2, 50 mM sodium phosphate pH 7.0; tag removed.

In general, Km refers to the concentration of substrate that gives half-maximal velocity.

`O=C[C@@H](O)CO` [L-glyceraldehyde]: the Km in assay [1] amounted to 0.9 mM.
As to `O=C(O)[C@H]1OC(O)[C@H](O)[C@@H](O)[C@H]1O` (stereo partly drawn) [D-galUA], the Michaelis-Menten constant (Km) in assay [2] is about 7 mM.
Take `O=C(O)[C@@H](O)[C@H](O)[C@H](O)[C@@H](O)CO` [L-galactonate]: the Km in assay [3] came out at 5.8 mM.
